Source: patent US7083959B2, “Therapeutic suppression of specific immune responses by administration of oligomeric forms of antigen of controlled chemistry” (The Johns Hopkins University, priority 1983, dated 2006)
Where no end group is shown, it is not given here.

Assays:
CAF1/J mice = test: Immunogenicity of monomeric and polymerized BSA or OVA without adjuvant, serum ELISA; format: in vivo; details: for serum anti-BSA IgM response: day 6, injected in saline without adjuvant, FIG. 40; for IgM and IgG anti-protein responses: administered without adjuvant
Method: The molecular weight for each fraction was then determined by the use of the Model E analytical ultracentrifuge under equilibrium conditions. During this prolonged series of slow fractionation steps, molecules which were unstable to any of the many steps involved in processing, handling, or storage were fractionated away from the samples, yielding a series of preparations, each of which contained a relatively narrow range of molecular sizes of substantial time stability. These water soluble preparations were then injected into mice intra-peritoneally, without the use of any adjuvant, in order to determine their relative immunogenicity. The level of immune response was determined by measuring serum IgM or IgG antibody levels against BSA or OVA by standard solid state ELISA technique.

anti-104 antibodies = test: Share of anti-104 antibodies directed against 159, direct binding ELISA and competition assay; parameters: species or system mice
From the text: However this peptide can be recognized by B cells since BSA conjugates raise good antibody responses to 159. Furthermore, as mentioned above, a substantial portion of antibodies raised by the 104-conjugates are directed against 159 as indicated both by direct binding in ELISA assay and by competition assay using free 159 to inhibit binding of anti-104 antibodies to 104-gelatin.

[1] = tested on: Sera obtained from (NZBxNZW) F1 mice; test: Epitope mapping: binding of lupus mouse sera to histone H2B peptides
From the text: This identification process, referred to herein as “epitope mapping”, involves the synthesis of various overlapping peptide fragments which are subsequently analyzed to establish regions of antigenicity. Clearly, the study of the entire H2B structure (125 amino acids) would require a very large amount of peptide synthesis. However, it is known from studies of SLE patients and mice with lupus-like disease that removal of the H2B N-terminal region with trypsin results in a loss of antigenicity (Portanova, J. P., et. al., J. Immunol. 38, 446–457, (1987)). Attention was, therefore, focussed on the synthesis of peptides derived from this region of histone H2B.

Molecule: BSA 70-mer: soluble highly polymerized BSA containing 70 BSA monomers, carbodiimide cross-linked (5000 kD)
- serum anti-BSA IgM response (CAF1/J mice): capable of raising IgM antibodies even at very low doses

Molecule: N-Ac-Cys-(ε-ACA)-Glu-Ala-His^331-Ala-Glu-Ile-Asn-Glu-Ala-Gly-Arg^339-CONH2 ({Ac-Cys-ε‑ACA}-EAHAEINEAGR-NH2; listed as Mus musculus) [compound 159, represents residues 331–339 of chicken ovalbumin (OVA)]
- share of antibody response to 104 attributed to 159 (anti-104 antibodies; 104 arrayed on dextran or BSA): 40–50%
- share of 104 response competed with soluble 159 (anti-104 antibodies; solution phase competition assays (data not shown)): up to 40%

Molecule: N-Acetyl-Ala-Pro-Lys-Lys-Gly-Ser-Lys-Lys-Ala-Val-Thr-Lys-Ala-Gln-Lys-Cys-CONH2 (Ac-APKKGSKKAVTKAQKC-NH2) [Lupus 4′]
- binding of sera to peptide [1]: not

Molecule: N-Acetyl-Cys-Ala-Pro-Lys-Lys-Gly-Ser-Lys-Lys-Ala-Val-Thr-Lys-Ala-Gln-Lys-CONH2 (Ac-CAPKKGSKKAVTKAQK-NH2) [Lupus 3′]
- binding of sera to peptide [1]: not

Molecule: N-Acetyl-Cys-Lys-Ala-Val-Thr-Lys-Ala-Gln-Lys-Lys-Asp-Gly-Lys-Lys-Arg-Lys-CONH2 (Ac-CKAVTKAQKKDGKKRK-NH2) [Lupus 5′]
- binding of sera to peptide [1]: not

Molecule: Polymeric BSA: BSA polymerized to itself through a water soluble carbodiimide, size fractionated
- IgM and IgG anti-protein responses (CAF1/J mice): considerable

Molecule: Pro-Glu-Pro-Ala-Lys-Ser-Ala-Pro-Ala-Pro-Lys-Lys-Gly-Ser-Lys-Cys-CONH2 (PEPAKSAPAPKKGSKC-NH2) [Lupus 2′]
- binding of sera to peptide [1]: bind strongly

Molecule: monomeric BSA: monomeric (68 kD) bovine serum albumin [reference compound]
- serum anti-BSA IgM response (CAF1/J mice): requires substantially higher doses
- anti-BSA IgG response (CAF1/J mice; repeated injections in saline at doses up to 100 μg, FIG. 43): not very effective

B1: Polymeric OVA: OVA polymerized to itself by glutaraldehyde, size fractionated (protein, UniProt P01012 2-386, looked up)
Ovalbumin: GSIGAASMEFCFDVFKELKVHHANENIFYCPIAIMSALAMVYLGAKDSTRTQINKVVRFDKLPGFGDSIEAQCGTSVNVHSSLRDILNQITKPNDVYSFSLASRLYAEERYPILPEYLQCVKELYRGGLEPINFQTAADQARELINSWVESQTNGIIRNVLQPSSVDSQTAMVLVNAIVFKGLWEKAFKDEDTQAMPFRVTEQESKPVQMMYQIGLFRVASMASEKMKILELPFASGTMSMLVLLPDEVSGLEQLESIINFEKLTEWTSSNVMEERKIKVYLPRMKMEEKYNLTSVLMAMGITDVFSSSANLSGISSAESLKISQAVHAAHAEINEAGREVVGSAEAGVDAASVSEEFRADHPFLFCIKHIATNAVLFFGRCVSP
modifications: glutaraldehyde self-polymerized
notes: OVA polymerized to itself by glutaraldehyde, size fractionated
- IgM and IgG anti-protein responses (CAF1/J mice): considerable
